Results reported in ChEMBL document CHEMBL1201862, “PubChem BioAssay data set” (2004).
Calls of active or inactive are those of the source.

Legend:
[1] = inhibitors of SNCA 5'UTR-driven reporter translation, confirmation, H4 neuroglioma cells, luminescence (AID 1988); assay type: functional, cell-based
[2] = molecular target: T1, Replicative DNA helicase DnaB (Mycobacterium tuberculosis, UniProt P9WMR3); experiment: DnaB intein splicing inhibitors, dose response, biochemical, cell-free fluorescence (AID 449749); assay type: functional
T1 sequence (P9WMR3 whole entry): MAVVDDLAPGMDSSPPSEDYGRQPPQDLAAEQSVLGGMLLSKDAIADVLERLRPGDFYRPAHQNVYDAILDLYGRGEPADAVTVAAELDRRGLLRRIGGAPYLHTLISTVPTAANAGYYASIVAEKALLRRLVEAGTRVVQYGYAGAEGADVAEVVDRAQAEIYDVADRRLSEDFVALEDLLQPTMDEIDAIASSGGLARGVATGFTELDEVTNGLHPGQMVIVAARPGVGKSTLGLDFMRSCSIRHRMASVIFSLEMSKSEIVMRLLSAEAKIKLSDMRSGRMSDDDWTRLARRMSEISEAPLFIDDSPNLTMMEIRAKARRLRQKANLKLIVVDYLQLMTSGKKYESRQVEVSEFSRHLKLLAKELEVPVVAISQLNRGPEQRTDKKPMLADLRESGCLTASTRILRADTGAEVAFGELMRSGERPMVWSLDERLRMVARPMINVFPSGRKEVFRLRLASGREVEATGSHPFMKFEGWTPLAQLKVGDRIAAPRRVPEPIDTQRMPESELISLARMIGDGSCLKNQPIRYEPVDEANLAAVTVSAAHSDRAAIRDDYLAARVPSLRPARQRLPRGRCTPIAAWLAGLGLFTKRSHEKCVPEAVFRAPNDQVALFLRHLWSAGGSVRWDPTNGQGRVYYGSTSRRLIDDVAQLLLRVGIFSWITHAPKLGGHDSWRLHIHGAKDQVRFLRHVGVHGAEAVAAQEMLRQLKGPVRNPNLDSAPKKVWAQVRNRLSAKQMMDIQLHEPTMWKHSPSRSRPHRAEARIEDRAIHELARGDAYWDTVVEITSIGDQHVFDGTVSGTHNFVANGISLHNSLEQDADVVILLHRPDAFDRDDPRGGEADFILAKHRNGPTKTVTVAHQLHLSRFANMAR

Protein RecA = molecular target: T2, Protein RecA (Mycobacterium tuberculosis, UniProt P9WHJ3); experiment: Fluorescence Cell-Free Homogeneous Dose Retest to Identify Inhibitors of RecA-Intein Splicing Activity. [Related pubchem assays (depositor defined):AID2097, AID2223, AID489010, AID492950]; assay type: functional
T2 sequence (P9WHJ3 whole entry): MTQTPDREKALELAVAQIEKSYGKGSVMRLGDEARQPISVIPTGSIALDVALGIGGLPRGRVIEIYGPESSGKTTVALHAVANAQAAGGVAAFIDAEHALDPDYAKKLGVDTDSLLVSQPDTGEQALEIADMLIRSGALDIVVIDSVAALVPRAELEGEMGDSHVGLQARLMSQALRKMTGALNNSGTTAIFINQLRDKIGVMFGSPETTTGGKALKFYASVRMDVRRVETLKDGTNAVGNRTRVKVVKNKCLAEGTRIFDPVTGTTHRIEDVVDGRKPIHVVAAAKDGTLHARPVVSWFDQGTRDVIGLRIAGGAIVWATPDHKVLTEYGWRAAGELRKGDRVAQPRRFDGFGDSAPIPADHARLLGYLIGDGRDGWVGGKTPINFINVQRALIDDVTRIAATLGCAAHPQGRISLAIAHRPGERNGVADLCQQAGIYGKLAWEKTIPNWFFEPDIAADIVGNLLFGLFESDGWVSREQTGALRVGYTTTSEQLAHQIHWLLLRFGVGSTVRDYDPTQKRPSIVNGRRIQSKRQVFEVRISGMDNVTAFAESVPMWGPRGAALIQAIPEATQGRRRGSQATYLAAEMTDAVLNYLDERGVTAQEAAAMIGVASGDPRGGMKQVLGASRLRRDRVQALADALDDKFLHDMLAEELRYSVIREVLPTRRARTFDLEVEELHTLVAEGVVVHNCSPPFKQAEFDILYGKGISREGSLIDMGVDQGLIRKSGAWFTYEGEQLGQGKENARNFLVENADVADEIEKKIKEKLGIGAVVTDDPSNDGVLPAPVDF

[3] = molecular target: Serine/threonine-protein phosphatase PP1-alpha catalytic subunit (Homo sapiens, UniProt P62136); experiment: PP1 phosphatase inhibitors, dose response, biochemical, fluorescence (AID 2394)
[4] = molecular target: Serine/threonine-protein kinase Nek2 (Homo sapiens, UniProt P51955); assay type: functional
[5] = molecular target: Serine/threonine-protein kinase PAK 4 (Homo sapiens, UniProt O96013); assay type: functional;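 further: value obtained within a kinome profiling panel in which PAK4 was one of the panel members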
[6] = molecular target: Dual specificity tyrosine-phosphorylation-regulated kinase 1B (Homo sapiens, UniProt Q9Y463); experiment: Navigating the Kinome. Panel member name: DYRK1B; assay type: functional
[7] = molecular target: MAP kinase-activated protein kinase 3 (Homo sapiens, UniProt Q16644); assay type: functional;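 further: value comes from a kinome-wide profiling panel in which MAPKAPK3 is one of the panel members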
[8] = molecular target: Tyrosine-protein kinase Blk (Homo sapiens, UniProt P51451); assay type: functional;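 further: obtained as one member of a kinome-wide kinase assay panel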
[9] = molecular target: Mitogen-activated protein kinase kinase kinase kinase 2 (Homo sapiens, UniProt Q12851); assay type: functional;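 further: measured as one member of a kinome-wide kinase panel, with MAP4K2 as the panel entry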
[10] = molecular target: Proto-oncogene tyrosine-protein kinase receptor Ret (Homo sapiens, UniProt P07949); assay type: functional;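 further: measured within a kinome-wide profiling panel, RET as the panel member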
[11] = molecular target: MAP kinase-interacting serine/threonine-protein kinase 2 (Homo sapiens, UniProt Q9HBH9); assay type: functional
[12] = molecular target: Mitogen-activated protein kinase 8 (Homo sapiens, UniProt P45983); assay type: functional;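 further: value comes from one member of a kinome-wide kinase profiling panel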
[13] = molecular target: Homeodomain-interacting protein kinase 2 (Homo sapiens, UniProt Q9H2X6); assay type: functional;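 further: measured within a kinome-wide kinase profiling panel, HIPK2 being one panel member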
[14] = molecular target: Serine/threonine-protein kinase BRSK1 (Homo sapiens, UniProt Q8TDC3); assay type: functional;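 further: measured within a kinome-wide kinase panel, with the target listed as KIAA1811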
[15] = molecular target: Maternal embryonic leucine zipper kinase (Homo sapiens, UniProt Q14680); assay type: functional
[16] = molecular target: Tyrosine-protein kinase FRK (Homo sapiens, UniProt P42685); assay type: functional;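 further: FRK tested as one member of a kinome panel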
[17] = molecular target: Leukocyte tyrosine kinase receptor (Homo sapiens, UniProt P29376); experiment: Navigating the Kinome. Panel member name: LTK; assay type: functional
[18] = molecular target: MAP kinase-activated protein kinase 5 (Homo sapiens, UniProt Q8IW41); assay type: functional;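 further: measured as one member of a kinome panel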
[19] = molecular target: Mitogen-activated protein kinase 14 (Homo sapiens, UniProt Q16539); assay type: functional;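 further: part of a kinome-wide panel, MAPK14 entry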
[20] = molecular target: Ribosomal protein S6 kinase beta-1 (Homo sapiens, UniProt P23443); assay type: functional;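 further: measured as one member of a kinome-wide profiling panel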
[21] = molecular target: Mitogen-activated protein kinase 1 (Homo sapiens, UniProt P28482); assay type: functional

Dual specificity tyrosine-phosphorylation-regulated kinase 1B, sequence (Q9Y463 whole entry): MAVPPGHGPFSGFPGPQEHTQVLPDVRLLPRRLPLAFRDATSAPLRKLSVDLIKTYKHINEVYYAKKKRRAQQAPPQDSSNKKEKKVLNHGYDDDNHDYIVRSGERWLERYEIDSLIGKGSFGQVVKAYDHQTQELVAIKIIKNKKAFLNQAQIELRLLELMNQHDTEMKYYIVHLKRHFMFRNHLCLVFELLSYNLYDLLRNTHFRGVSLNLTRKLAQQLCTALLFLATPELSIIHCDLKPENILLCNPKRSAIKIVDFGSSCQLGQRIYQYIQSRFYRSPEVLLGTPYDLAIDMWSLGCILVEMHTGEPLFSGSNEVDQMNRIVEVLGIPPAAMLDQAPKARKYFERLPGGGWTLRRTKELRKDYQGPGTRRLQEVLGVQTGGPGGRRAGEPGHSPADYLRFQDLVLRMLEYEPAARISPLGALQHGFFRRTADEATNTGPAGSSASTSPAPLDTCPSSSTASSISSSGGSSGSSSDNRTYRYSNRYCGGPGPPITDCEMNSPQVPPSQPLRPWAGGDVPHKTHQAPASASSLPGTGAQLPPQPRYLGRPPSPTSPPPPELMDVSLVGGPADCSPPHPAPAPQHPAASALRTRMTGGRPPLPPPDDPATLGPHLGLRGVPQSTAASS
Serine/threonine-protein kinase BRSK1, sequence (Q8TDC3 whole entry): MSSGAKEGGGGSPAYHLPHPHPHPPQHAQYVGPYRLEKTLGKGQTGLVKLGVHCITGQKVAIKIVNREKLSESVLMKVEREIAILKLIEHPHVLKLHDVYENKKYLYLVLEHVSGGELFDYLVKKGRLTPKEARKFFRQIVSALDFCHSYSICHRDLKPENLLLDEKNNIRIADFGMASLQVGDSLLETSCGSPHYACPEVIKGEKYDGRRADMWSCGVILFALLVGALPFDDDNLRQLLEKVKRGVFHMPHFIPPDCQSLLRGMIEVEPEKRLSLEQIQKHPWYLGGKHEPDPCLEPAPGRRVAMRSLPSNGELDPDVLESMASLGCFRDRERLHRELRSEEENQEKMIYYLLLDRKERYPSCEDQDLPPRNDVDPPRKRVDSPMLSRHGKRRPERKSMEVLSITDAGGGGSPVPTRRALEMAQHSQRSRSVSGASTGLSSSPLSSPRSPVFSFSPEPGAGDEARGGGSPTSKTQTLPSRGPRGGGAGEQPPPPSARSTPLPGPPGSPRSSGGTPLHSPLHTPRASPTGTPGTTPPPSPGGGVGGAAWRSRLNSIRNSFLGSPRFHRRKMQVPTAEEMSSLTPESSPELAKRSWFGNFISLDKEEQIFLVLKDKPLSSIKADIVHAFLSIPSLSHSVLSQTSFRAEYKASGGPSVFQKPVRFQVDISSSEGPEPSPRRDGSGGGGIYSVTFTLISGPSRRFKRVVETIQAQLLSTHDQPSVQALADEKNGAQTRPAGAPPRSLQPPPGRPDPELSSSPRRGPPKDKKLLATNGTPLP
Proto-oncogene tyrosine-protein kinase receptor Ret, sequence (P07949 whole entry): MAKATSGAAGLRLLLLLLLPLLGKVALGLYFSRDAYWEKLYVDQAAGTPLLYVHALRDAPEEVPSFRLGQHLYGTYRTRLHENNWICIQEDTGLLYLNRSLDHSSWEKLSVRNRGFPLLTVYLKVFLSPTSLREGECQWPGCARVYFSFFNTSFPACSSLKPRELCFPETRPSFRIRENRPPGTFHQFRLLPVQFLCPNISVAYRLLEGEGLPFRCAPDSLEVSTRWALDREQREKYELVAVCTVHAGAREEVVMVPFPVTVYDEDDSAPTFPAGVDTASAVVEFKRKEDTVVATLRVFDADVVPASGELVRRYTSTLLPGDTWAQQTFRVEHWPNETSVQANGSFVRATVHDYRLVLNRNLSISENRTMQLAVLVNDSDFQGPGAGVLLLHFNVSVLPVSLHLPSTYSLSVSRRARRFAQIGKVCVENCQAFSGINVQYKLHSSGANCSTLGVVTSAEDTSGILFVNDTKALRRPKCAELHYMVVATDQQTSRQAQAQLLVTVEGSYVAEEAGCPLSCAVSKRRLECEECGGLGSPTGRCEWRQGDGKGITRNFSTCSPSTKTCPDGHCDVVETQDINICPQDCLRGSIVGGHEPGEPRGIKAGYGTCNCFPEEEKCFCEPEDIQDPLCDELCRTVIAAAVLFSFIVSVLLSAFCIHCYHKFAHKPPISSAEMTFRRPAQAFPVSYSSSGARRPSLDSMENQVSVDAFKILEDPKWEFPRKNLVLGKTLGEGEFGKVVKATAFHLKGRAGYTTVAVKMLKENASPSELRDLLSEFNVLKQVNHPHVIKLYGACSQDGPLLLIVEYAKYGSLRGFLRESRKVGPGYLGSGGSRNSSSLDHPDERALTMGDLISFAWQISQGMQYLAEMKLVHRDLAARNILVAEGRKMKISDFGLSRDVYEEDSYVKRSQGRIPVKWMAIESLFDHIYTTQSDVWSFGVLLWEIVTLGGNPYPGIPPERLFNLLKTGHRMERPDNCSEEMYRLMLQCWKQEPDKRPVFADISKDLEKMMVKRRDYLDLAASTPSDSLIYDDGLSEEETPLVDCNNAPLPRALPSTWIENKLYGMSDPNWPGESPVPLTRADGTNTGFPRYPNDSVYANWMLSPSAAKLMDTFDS
Ribosomal protein S6 kinase beta-1, sequence (P23443 whole entry): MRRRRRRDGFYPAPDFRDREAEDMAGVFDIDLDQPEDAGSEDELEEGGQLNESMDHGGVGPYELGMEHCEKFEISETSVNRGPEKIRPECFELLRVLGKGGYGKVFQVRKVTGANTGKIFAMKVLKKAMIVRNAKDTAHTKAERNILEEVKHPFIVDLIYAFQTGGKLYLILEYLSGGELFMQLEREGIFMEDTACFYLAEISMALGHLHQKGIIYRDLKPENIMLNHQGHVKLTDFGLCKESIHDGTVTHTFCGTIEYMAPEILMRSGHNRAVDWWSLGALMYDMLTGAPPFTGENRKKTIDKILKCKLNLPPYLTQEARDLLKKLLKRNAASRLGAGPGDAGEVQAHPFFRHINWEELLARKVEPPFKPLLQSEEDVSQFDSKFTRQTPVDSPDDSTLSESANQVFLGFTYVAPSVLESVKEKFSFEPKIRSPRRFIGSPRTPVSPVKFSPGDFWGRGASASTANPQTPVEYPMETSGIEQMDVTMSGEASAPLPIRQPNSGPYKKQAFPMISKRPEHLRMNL
Homeodomain-interacting protein kinase 2, sequence (Q9H2X6 whole entry): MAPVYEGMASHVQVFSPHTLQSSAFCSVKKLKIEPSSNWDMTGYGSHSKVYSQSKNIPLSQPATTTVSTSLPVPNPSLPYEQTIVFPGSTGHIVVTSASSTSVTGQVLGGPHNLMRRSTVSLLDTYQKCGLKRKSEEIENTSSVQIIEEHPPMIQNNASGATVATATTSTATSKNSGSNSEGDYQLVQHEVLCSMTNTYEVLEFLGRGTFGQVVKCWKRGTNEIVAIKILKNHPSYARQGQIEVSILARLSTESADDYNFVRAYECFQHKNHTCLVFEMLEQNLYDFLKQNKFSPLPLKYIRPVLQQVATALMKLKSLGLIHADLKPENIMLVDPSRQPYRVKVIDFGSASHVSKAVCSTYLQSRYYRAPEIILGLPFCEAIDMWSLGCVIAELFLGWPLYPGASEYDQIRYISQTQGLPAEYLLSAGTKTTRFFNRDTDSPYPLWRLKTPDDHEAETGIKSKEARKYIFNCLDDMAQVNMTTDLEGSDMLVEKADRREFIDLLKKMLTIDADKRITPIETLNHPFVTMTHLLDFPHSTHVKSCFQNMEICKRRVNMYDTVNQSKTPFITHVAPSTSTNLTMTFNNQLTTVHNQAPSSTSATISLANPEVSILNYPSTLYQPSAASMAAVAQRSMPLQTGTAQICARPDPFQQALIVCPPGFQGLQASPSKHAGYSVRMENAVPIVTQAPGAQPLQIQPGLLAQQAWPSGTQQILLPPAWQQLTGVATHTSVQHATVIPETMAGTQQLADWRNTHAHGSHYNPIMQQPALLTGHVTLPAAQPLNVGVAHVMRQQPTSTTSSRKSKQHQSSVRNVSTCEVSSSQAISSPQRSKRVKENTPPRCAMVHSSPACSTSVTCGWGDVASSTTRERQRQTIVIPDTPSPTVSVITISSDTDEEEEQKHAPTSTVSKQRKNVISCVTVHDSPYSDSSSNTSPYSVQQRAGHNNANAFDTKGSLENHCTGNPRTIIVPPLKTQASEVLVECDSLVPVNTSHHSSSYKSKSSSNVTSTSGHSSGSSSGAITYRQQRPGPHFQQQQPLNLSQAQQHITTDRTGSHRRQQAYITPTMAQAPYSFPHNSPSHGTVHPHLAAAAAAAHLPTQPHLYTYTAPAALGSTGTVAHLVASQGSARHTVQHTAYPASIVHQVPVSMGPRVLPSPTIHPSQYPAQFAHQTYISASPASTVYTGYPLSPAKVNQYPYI
Tyrosine-protein kinase Blk, sequence (P51451 whole entry): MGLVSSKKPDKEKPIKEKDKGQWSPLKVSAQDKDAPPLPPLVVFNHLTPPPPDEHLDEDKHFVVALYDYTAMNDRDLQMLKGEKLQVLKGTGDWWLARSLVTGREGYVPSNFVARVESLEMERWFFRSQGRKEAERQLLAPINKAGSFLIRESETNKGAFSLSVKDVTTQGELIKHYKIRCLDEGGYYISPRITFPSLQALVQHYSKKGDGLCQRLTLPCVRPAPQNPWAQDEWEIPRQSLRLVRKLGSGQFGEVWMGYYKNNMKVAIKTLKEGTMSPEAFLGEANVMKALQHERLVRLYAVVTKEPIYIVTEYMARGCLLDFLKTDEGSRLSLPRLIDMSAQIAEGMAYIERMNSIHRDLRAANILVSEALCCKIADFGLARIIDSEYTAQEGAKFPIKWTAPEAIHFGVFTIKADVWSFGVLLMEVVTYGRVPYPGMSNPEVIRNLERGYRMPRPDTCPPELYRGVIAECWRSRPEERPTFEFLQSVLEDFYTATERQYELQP

In the case of `NS(=O)(=O)c1ccc(NC2=CC(=O)C(=O)c3ccccc32)cc1`, the EC50 [1] was 8.45 µM (active), the AC50 [2] was 1.84 µM (active) and the EC50 (Protein RecA) was 667 nM (active). For the same compound, the IC50 [3] was 38.9 µM (not active).

In the case of `Clc1cc(-c2c[nH]c3ncccc23)nc(NC2CCCCC2)n1`, the Ki [4] was > 10 µM (inactive), the Ki [5] was > 2 µM (inactive) and the Ki [6] was 7.94 nM (active). For the same compound, the Ki [7] was > 10 µM (inactive), the Ki [8] was > 1.58 µM (inactive) and the Ki [9] was > 1.26 µM (inactive). The Ki [10] was > 2 µM (inactive), the Ki [11] was 79.4 nM (active) and the Ki [12] was > 3.16 µM (inactive). The Ki [13] was 100 nM (active), the Ki [14] was > 10 µM (inactive) and the Ki [15] was 316 nM (active). The Ki [16] was > 2.51 µM (inactive), the Ki [17] was > 2.51 µM (inactive) and the Ki [18] was > 1.58 µM (inactive). For the same compound, the Ki [19] was > 3.98 µM (inactive), the Ki [20] was 2.51 µM (active) and the Ki [21] was 398 nM (active).
